Assay results reported in patent US20030044399A1, “Method of treatment” (SmithKline Beecham Corporation, priority 1998, published 2003).
Like-named read-outs stand apart in the source and are kept apart here.

Biological target: Cruzain (Trypanosoma cruzi, UniProt P25779)
Experiment: Cysteine protease inhibition, progress curve method, cruzain
Format: biochemical
Settings: 4 uM Ac-Lys-Glu-Lys-Leu-Arg-AMC, 100 mM Na acetate pH 5.5, 5 mM cysteine
Procedure: Standard assay conditions for the determination of kinetic constants used 10 uM fluorogenic peptide substrate, Cbz-Phe-Arg-AMC for the cysteine proteases from Leishmania spp and Schistosoma Mansoni, Cbz-Leu-Arg-AMC for the cysteine proteases from Plasmodium falciparum and Trypanosoma brucei rhodesiensi, and Ac-Lys-Glu-Lys-Leu-Arg-AMC (4 uM final substrate concentration) for the cysteine protease from Trypoanosoma cruzi, and were determined in 100 mM Na acetate at pH 5.5 containing 5 mM cysteine. Stock substrate solutions were prepared at concentrations of […] in DMSO with 10 uM (4 uM for Ac-Lys-Glu-Lys-Leu-Arg-AMC) final substrate concentration in the assays. The final DMSO concentration was 2% and the final volume was 100 uL. All assays were conducted at ambient temperature. Product progress curves were generated over 20 to 30 minutes following formation of AMC product.
Potential inhibitors were evaluated using the progress curve method. Assays were carried out in the presence of variable concentrations of test compound. Reactions were initiated by addition of enzyme to buffered solutions of inhibitor and substrate. Data analysis was conducted according to one of two procedures depending on the appearance of the progress curves in the presence of inhibitors. For those compounds whose progress curves were linear, apparent inhibition constants (Ki,app) were calculated according to equation 1 (Brandt et al., Biochemitsry, 1989, 28, 140):
v=VmA/[Ka(1+I/Ki,app)+A] (1)
Where v is the velocity of the reaction with maximal velocity Vm, A is the concentration of substrate with Michaelis constant of Ka, and I is the concentration of inhibitor.
[AMC]=vsst+(v0−vss)[1−exp (−kobst)]/kobs (2)
Where [AMC] is the concentration of product formed over time t, v0 is the initial reaction velocity and vss is the final steady state rate. Values for kobs were then analyzed as a linear function of inhibitor concentration to generate an apparent second order rate constant (kobs/inhibitor concentration or kobs/[I]) describing the time-dependent inhibition. A complete discussion of this kinetic treatment has been fully described (Morrison et al., Adv. Enzymol. Relat. Areas Mol. Biol., 1988, 61, 201).
Exemplary inhibition data for the compounds used in the present method collected in accordance with the above-described procedure are listed in Table I.

Sequence of Cruzain (P25779 123-337): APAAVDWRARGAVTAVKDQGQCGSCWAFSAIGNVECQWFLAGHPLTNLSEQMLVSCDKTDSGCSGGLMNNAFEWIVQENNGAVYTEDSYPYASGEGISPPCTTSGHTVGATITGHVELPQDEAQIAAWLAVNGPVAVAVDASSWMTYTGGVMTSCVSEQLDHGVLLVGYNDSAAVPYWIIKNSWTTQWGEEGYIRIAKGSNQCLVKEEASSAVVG

CC(C)C[C@H](NC(=O)c1cc2ccccc2o1)C(=O)N[C@H]1CCCN(S(=O)(=O)c2ccccc2F)CC1=O [Example 91]
Ki (read-out: Cruzain Ki): 6.2 nM

CC(C)C[C@@H](NC(=O)c1nccc2ccccc12)C(=O)N[C@@H]1CCCN(S(=O)(=O)c2ccccn2)CC1=O (stereo in doubt) [Example 29, Isoquinoline-1-carboxylic acid {(S)-3-methyl-1-[3-oxo-1-(pyridine-2-sulfonyl)-azepan-4-ylcarbamoyl]-butyl}amide]
Ki (read-out: Cruzain Ki): 11 nM

COc1ccc(S(=O)(=O)N2CCCC(NC(=O)C(CC(C)C)NC(=O)c3cc4ccccc4o3)C(=O)C2)cc1 (stereo in doubt) [Example 74, Benzofuran-2-carboxylic acid {(S)-1-[1-(4-methoxy-benzenesulfonyl)-3-oxo-azepan-4-ylcarbamoyl]-3-methyl-butyl}-amide]
Ki (read-out: Cruzain Ki): 24 nM

CC(C)C[C@H](NC(=O)c1cc2ccccc2s1)C(=O)N[C@@H]1CCCN(S(=O)(=O)c2cccs2)CC1=O [Example 146, Benzo[b]thiophene-2-carboxylic acid-{(S)-3-methyl-1-[3-oxo-1-(thiophene-2-sulfonyl)-azepan-4-ylcarbamoyl]-butyl}-amide]
Ki (read-out: Cruzain Ki): 6.7 nM

4-[2-(2-{(S)-3-Methyl-1[3-oxo-1-(pridine-2-sulfonyl)-azepan-4-ylcarbamoyl]-butylcarbamoyl}-benzofuran-5-yloxy)-ethyl]-piperazine-1-carboxylic acid tert-butyl ester [Example 22]
Ki (read-out: Cruzain Ki): 14 nM

CCCC[C@H](NC(=O)c1cc2ccccc2o1)C(=O)NC1CCCN(S(=O)(=O)c2ccccn2)CC1=O (stereo partly drawn) [Example 103, Benzofuran-2-carboxylic acid{(S)-1-[3-oxo-1-(pyridine-2-sulfonyl)-azepan-4-ylcarbamoyl]-pentyl}-amide]
Ki (read-out: Cruzain Ki): 60 nM

CC(C)C[C@H](NC(=O)c1cc2ccccc2s1)C(=O)NC1CCCN(S(C)(=O)=O)CC1=O (stereo partly drawn) [Example 111, Benzo[b]thiophene-2-carboxylic acid-{(S)-1-(1-methanesulfonyl-3-oxo-azepan-4-ylcarbamoyl)-3-methyl-butyl]-amide]
Ki (read-out: Cruzain Ki): 18 nM

CC(C)C[C@@H](NC(=O)c1ccc2ccccc2n1)C(=O)N[C@@H]1CCCN(S(=O)(=O)c2ccccn2)CC1=O (stereo in doubt) [Example 24, Quinoline-2-carboxylic acid {(S)-3-methyl-1-[3-oxo-1-(pyridine-2-sulfonyl)-azepan-4-ylcarbamoyl]-butyl}amide]
Ki (read-out: Cruzain Ki): 23 nM

COc1ccc2oc(C(=O)N[C@H](CC(C)C)C(=O)N[C@@H]3CCCN(S(=O)(=O)c4ccccn4)CC3=O)cc2c1 (stereo in doubt) [Example 33, 5-Methoxy-benzofuran-2-carboxylic acid {(S)-3-methyl-1-[3-oxo-1-(pyridine-2-sulfonyl)-azepan-4-ylcarbamoyl]-butyl}amide]
Ki (read-out: Cruzain Ki): 14 nM

Cc1c(C(=O)NC(CC(C)C)C(=O)NC2CCCN(S(=O)(=O)c3cccc[n+]3[O-])CC2=O)oc2ccc3ccccc3c12 [Example 210, 1-methyl-naphtho[2,1-b]-furan-2-carboxylic acid {(S)-3-methyl-1-[3oxo-1-(1-oxy-pyridine-2-sulfonyl)-azepan-4-ylcarbamoyl]-butyl}-amide]
Ki (Cruzain Ki nM): 6.6 nM

CC(C)CCC(=O)N1CCCC(NC(=O)[C@@H](CC(C)C)NC(=O)c2cc3cc(OCCN4CCOCC4)ccc3o2)C(=O)C1 (stereo partly drawn) [Example 15, 5-(2-Morpholino-4-yl-ethoxy)-benzofuran-2-carboxylic acid {(S)-3-methyl-1-[1-(4-methyl-2entanoyl)-3-oxo-azepan-4-ylcarbamoyl]-butyl}-amide]
Ki (read-out: Cruzain Ki): 24 nM

CC(C)C[C@@H](NC(=O)c1cc2cc(OCCN3CCCC3)ccc2o1)C(=O)NC1CCCN(S(=O)(=O)c2ccccc2)CC1=O (single isomer, unassigned) [Example 13]
Ki (read-out: Cruzain Ki): 32 nM

Cc1cccc(S(=O)(=O)N2CCC[C@@H](NC(=O)[C@@H](CC(C)C)NC(=O)c3cc4ccccc4o3)C(=O)C2)n1 (stereo in doubt) [Example 172, Benzofuran-2-carboxylic acid {(S)-3-methyl-1-[1-(6-methyl-pyridine-2-sulfonyl)-3-oxo-azepan-4-ylcarbamoyl]-butyl}amide]
Ki (read-out: Cruzain Ki): 7.4 nM
